# Experimental data as given in PubChem BioAssay (NCI).
# Several values for one entry are separate records, joined by “and”; a condition that tells them apart may be missing. Identical values can stand only once.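 Growth conditions: 96-well plates. Treatment: test compound, 48 hours, 5 concentrations. Analysis: linear interpolation between bracketing concentrations; unreached endpoints set to highest concentration. GI50 marks 50% less growth. TGI is the concentration that stops growth completely.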
# Tests used:
# Test in all cases: NCI-60 cell line screen, 48 h
# SNB-75 CNS = tested on: SNB-75 CNS
# HL-60(TB) leukemia = tested on: HL-60(TB) leukemia
# SNB-19 CNS = tested on: SNB-19 CNS
# MALME-3M melanoma = tested on: MALME-3M melanoma
# SF-268 CNS = tested on: SF-268 CNS
# KM12 colon = tested on: KM12 colon
# SK-OV-3 ovarian = tested on: SK-OV-3 ovarian
# SF-539 CNS = tested on: SF-539 CNS
# MDA-MB-231 breast = tested on: MDA-MB-231 breast
# OVCAR-3 ovarian = tested on: OVCAR-3 ovarian
Compound,GI50 (SNB-75 CNS) [µM],TGI (SNB-75 CNS) [µM],GI50 (HL-60(TB) leukemia) [µM],TGI (HL-60(TB) leukemia) [µM],GI50 (SNB-19 CNS) [µM],TGI (SNB-19 CNS) [µM],GI50 (MALME-3M melanoma),TGI (MALME-3M melanoma),GI50 (SF-268 CNS) [µM],TGI (SF-268 CNS) [µM],GI50 (KM12 colon),TGI (KM12 colon),GI50 (SK-OV-3 ovarian),TGI (SK-OV-3 ovarian),GI50 (SF-539 CNS) [µM],TGI (SF-539 CNS) [µM],GI50 (MDA-MB-231 breast) [µM],TGI (MDA-MB-231 breast) [µM],GI50 (OVCAR-3 ovarian),TGI (OVCAR-3 ovarian)
CCC(=O)Nc1ccc2c(c1)CN1C(=O)c3ccccc3C1=N2,> 100,> 100,> 100,> 100,> 100,> 100,> 100 µM,> 100 µM,> 100,> 100,> 100 µM,> 100 µM,> 100 µM,> 100 µM,> 100,> 100,> 100,> 100,> 100 µM,> 100 µM
O=C1CN2CCC1C/C2=C\c1ccnc2c(Cl)cccc12 (stereo not given),> 100,> 100,67.4,> 100,> 100,> 100,91.9 µM,> 100 µM,> 100,> 100,56.8 µM,> 100 µM,> 100 µM,> 100 µM,> 100,> 100,88.8,> 100,> 100 µM,> 100 µM
COc1ccc(/C(Cl)=C(\C=O)c2cc(OC)c(OC)c(OC)c2)cc1OC,–,> 28.1,–,58.6,–,> 100,–,> 92.6 µM,–,> 100,–,73.8 µM,–,> 100 µM,–,87.9,–,> 100,–,> 100 µM
Cc1cc(Nc2ncc(Cl)c(Nc3ccccc3S(=O)(=O)C(C)C)n2)c(OC(C)C)cc1C1CCNCC1,1.2,2.44,0.253,1.64,1.73,3.14,0.857 µM and 0.265 µM,2.25 µM and 1.25 µM,1.61,3.38,1.49 µM and 0.911 µM,3.11 µM and 2.1 µM,2.02 µM and 1.67 µM,4.39 µM and 3.03 µM,1.62,2.99,1.37,2.71,1.61 µM and 1.37 µM,3.01 µM and 2.66 µM
O=C1NC(=O)[C@H]2C3C=CC([C@@H]12)[C@@H]1C(=O)NC(=O)[C@H]31,–,–,–,> 100,–,> 100,–,> 100 µM,–,> 100,–,–,–,–,–,> 100,–,> 100,–,> 100 µM
N#C/C(=C\c1ccc(Cl)cc1)n1nnc2cc(F)c(F)cc21,1.51,3.01,2.36,6.82,1.82,3.78,2.06 µM,5.34 µM,1.98,4.45,1.95 µM,4.29 µM,–,–,1.97,3.77,1.85,4.47,1.71 µM,3.22 µM
CN1CCN(Cc2ccc(NC(=O)c3[nH]ncc3Nc3ccnc4ccsc34)cc2)CC1,0.222,3.54,2.49,5.85,2.81,20.2,3.44 µM,13.7 µM,3.22,11,2.35 µM,11.2 µM,1.05 µM,23.5 µM,1.35,3.42,3.56,9.71,2.34 µM,11.5 µM
C=C1C(=O)O[C@H]2[C@H]1CC/C(COC(=O)NCCc1c[nH]c3ccccc13)=C\CC[C@@]1(C)O[C@@H]21,8.45,21.8,0.583,2.86,6.46,20.2,1.94 µM,3.82 µM,2.94,13.5,5.41 µM,21.4 µM,12.5 µM,25.1 µM,1.62,3.29,1.48,3.3,1.04 µM,2.31 µM
CCN(CC)CCCN1C(=O)c2c(c(C)c3c(oc4cc(O)ccc43)c2C)C1=O,1.52,2.91,1.69,3.67,1.75,3.35,1.83 µM,3.51 µM,1.74,3.34,1.8 µM,3.37 µM,1.73 µM,3.2 µM,1.77,3.18,1.81,3.47,1.79 µM,3.27 µM
CC1(C)CC2=NOS3=C2C(=NO3)C1c1ccccn1 (stereo not given),–,> 100,–,51.7,–,> 100,–,> 100 µM,–,> 100,–,> 100 µM,–,> 100 µM,–,> 100,–,> 100,–,> 100 µM
CCN(CC)CCCC(C)N/C(c1cccc(OC)c1)=c1\c(=O)[nH]n(-c2c3ccccc3nc3ccccc23)c(=O)\c1=C(/NC(C)CCCN(CC)CC)c1cccc(OC)c1 (stereo not given),1.41,2.74,2.16,5.23,3.18,13,1.9 µM,3.54 µM,1.4,4.87,1.18 µM,6.51 µM,2.23 µM,7.2 µM,1.67,3.21,1.25,3.26,1.8 µM,5.4 µM
COc1ccc(C(=O)c2ccc(OC)cc2OC)cc1,1.76,5.57,2.94,> 100,6.12,> 100,5.83 µM,> 100 µM,7.57,> 100,2.22 µM,24.7 µM,2.66 µM,8.81 µM,2.81,22.4,6.6,90.2,2.2 µM,5.95 µM
C[C@@H](Oc1cc(-c2cnn(C3CC4(CCNCC4)C3)c2)cnc1N)c1c(F)ccc(Cl)c1Cl,1.32,2.92,1.28,3.36,4.29,18.1,1.29 µM,3.02 µM,1.64,4.71,0.0399 µM,1.39 µM,2.43 µM,6.75 µM,1.51,2.96,1.26,3,1.83 µM,5.19 µM
